Experimental data published in patent US20240301319A1, “PERFUMING COMPOSITIONS” (FIRMNICH SA, priority 2017, published 2024).
Structures can show the parent of a compound that is named as a salt.

Columns and labels:
[1] = Odor threshold and odor value of perfuming compounds (Tables 4 to 10)
[2] = Volatility of perfuming compounds (Tables 4 to 10), with top/middle/bottom note type; format: physicochemical
Outline: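 Note type follows from air volatility (μg/l): bottom 49–0.1, middle 99–50, top 70,000–100. Compounds are listed within watery, green, fruity, citrus, sweet, gourmand and woody families.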

[3] = Table 8, perfuming compounds having a sweet note
[4] = perfuming compounds having a green note
[5] = Table 6, perfuming compounds having a fruity note
[6] = Table 6, perfuming compounds having a fruity note, note type by volatility
[7] = Table 8, perfuming compounds having a sweet note, note type by volatility
[8] = Table 9, perfuming compounds having a gourmand note, note type by volatility
[9] = note type (Top/Middle/Bottom) by volatility, perfuming compounds having a green note
[10] = Table 7, citrus note, equals volatility divided by odor threshold
[11] = Table 7, citrus note, top, middle or bottom note
[12] = Table 10, perfuming compounds having a woody note, note type by volatility

CCCCCC(=O)OCC [ETHYL HEXANOATE]
Odor Threshold [1, 3]: 9.11E−04 μg/l air | Odor Value [1, 3]: 1.06E+07 | Odor Threshold ([1]; Table 9, gourmand note): 9.11E−04 μg/l air | Odor Threshold (μg/l air) [1, 4]: 9.11E−04 μg/l air | Volatility [2, 5]: 9675.10 μg/l air | Type [2, 6]: TOP (perfuming compounds having a volatility ranging from 70,000 to 100 μg/l in air are referred to as “top notes”) | Volatility [2, 3]: 9675.10 μg/l air | Type [2, 7]: Top | Volatility ([2]; Table 9, gourmand note): 9675.10 μg/l air | Type [2, 8]: Top | Type [2, 9]: Top | Volatility (μg/l air) [2, 4]: 9675.10 μg/l air

CC/C=C\CCOC(=O)c1ccccc1O [(3Z)-3-hexen-1-yl salicylate]
Odor Threshold (μg/l air) [1, 4]: 3.23E−04 μg/l air | Type [2, 9]: Bottom | Volatility (μg/l air) [2, 4]: 4.34 μg/l air

O=C(Cc1ccccc1)OCCc1ccccc1 [2-PHENYLETHYL PHENYLACETATE]
Odor Threshold [1, 5]: 9.08E−04 μg/l air | Odor Value [1, 5]: 2.24E+02 | Odor Threshold (μg/l air) ([1]; Table 7, citrus note): 9.08E−04 μg/l air | Odor Value [1, 10]: 2.24E+02 | Odor Threshold [1, 3]: 9.08E−04 μg/l air | Odor Value [1, 3]: 2.24E+02 | Odor Threshold ([1]; Table 9, gourmand note): 9.08E−04 μg/l air | Volatility [2, 5]: 0.20 μg/l air | Type [2, 6]: Bottom | Volatility (μg/l air) ([2]; Table 7, citrus note): 0.20 μg/l air | Type [2, 11]: Bottom | Volatility [2, 3]: 0.20 μg/l air | Type [2, 7]: Bottom | Volatility ([2]; Table 9, gourmand note): 0.20 μg/l air | Type [2, 8]: Bottom

CC(C)C(=O)OCCc1ccccc1 [2-PHENYLETHYL ISOBUTYRATE]
Odor Threshold [1, 5]: 6.70E−03 μg/l air | Odor Value [1, 5]: 1.01E+04 | Odor Threshold [1, 3]: 6.70E−03 μg/l air | Odor Value [1, 3]: 1.01E+04 | Odor Threshold ([1]; Table 9, gourmand note): 6.70E−03 μg/l air | Volatility [2, 5]: 67.38 μg/l air | Type [2, 6]: Middle | Volatility [2, 3]: 67.38 μg/l air | Type [2, 7]: Middle | Volatility ([2]; Table 9, gourmand note): 67.38 μg/l air | Type [2, 8]: Middle

CCCCCCCC=O [OCTANAL]
Odor Threshold (μg/l air) [1, 4]: 2.77E−04 μg/l air | Type [2, 9]: Top | Volatility (μg/l air) [2, 4]: 4147.61 μg/l air

CC/C=C\CCOC(=O)OC [(3Z)-hex-3-en-1-yl methyl carbonate]
Odor Threshold (μg/l air) [1, 4]: 4.58E−02 μg/l air | Volatility [2, 5]: 1506.33 μg/l air | Type [2, 6]: TOP (perfuming compounds having a volatility ranging from 70,000 to 100 μg/l in air are referred to as “top notes”) | Type [2, 9]: Top | Volatility (μg/l air) [2, 4]: 1506.33 μg/l air

CC(=O)O[C@@H]1CC[C@@H]2C(C)(C)CCC[C@@]2(C)C1 (racemic)
Odor Threshold ([1]; Table 10, woody note): 4.19E−04 μg/l air | Type [2, 12]: Bottom | Volatility ([2]; Table 10, woody note): 14.41 μg/l air

CCOC(=O)C12CCCC1C1CCC2C1 (stereo not drawn)
Odor Threshold [1, 5]: 6.87E−05 μg/l air | Odor Value [1, 5]: 1.63E+06 | Odor Threshold (μg/l air) [1, 4]: 6.87E−05 μg/l air | Volatility [2, 5]: 111.67 μg/l air | Type [2, 6]: TOP (perfuming compounds having a volatility ranging from 70,000 to 100 μg/l in air are referred to as “top notes”) | Type [2, 9]: Top | Volatility (μg/l air) [2, 4]: 111.67 μg/l air

CCCCC/C(C=O)=C\c1ccccc1 [(E)-2-PENTYL-3-PHENYL-2-PROPENAL]
Odor Threshold [1, 5]: 3.64E−04 μg/l air | Odor Value [1, 5]: 1.87E+03 | Odor Threshold (μg/l air) ([1]; Table 7, citrus note): 3.64E−04 μg/l air | Odor Value [1, 10]: 1.87E+03 | Volatility [2, 5]: 0.68 μg/l air | Type [2, 6]: Bottom | Volatility (μg/l air) ([2]; Table 7, citrus note): 0.68 μg/l air | Type [2, 11]: Bottom

CCC(C)C(=O)OC(C)C (racemic) [(+−)-ISOPROPYL 2-METHYLBUTANOATE]
Odor Threshold (μg/l air) ([1]; Table 7, citrus note): 8.42E−03 μg/l air | Odor Value [1, 10]: 6.10E+06 | Volatility [2, 5]: 51367.63 μg/l air | Type [2, 6]: TOP (perfuming compounds having a volatility ranging from 70,000 to 100 μg/l in air are referred to as “top notes”) | Volatility (μg/l air) ([2]; Table 7, citrus note): 51367.63 μg/l air | Type [2, 11]: Top

CC(=O)OCCC1=CCC2CC1C2(C)C (stereo not drawn)
Odor Threshold ([1]; Table 10, woody note): 1.10E−01 μg/l air | Type [2, 12]: Middle | Volatility ([2]; Table 10, woody note): 60.02 μg/l air

CC/C(=C\C[C@H]1CC=C(C)C1(C)C)CO
Odor Threshold ([1]; Table 10, woody note): 2.41E−05 μg/l air | Type [2, 12]: Bottom | Volatility ([2]; Table 10, woody note): 2.75 μg/l air

CCC(O)COC1CCCCC1C(C)(C)C (racemic)
Odor Threshold ([1]; Table 10, woody note): 3.53E−02 μg/l air | Type [2, 12]: Top | Volatility ([2]; Table 10, woody note): 205.05 μg/l air

O=C1CCC2(CCCCC2)O1 [1-oxaspiro[4.5]decan-2-one]
Odor Threshold ([1]; Table 9, gourmand note): 2.90E−04 μg/l air | Volatility ([2]; Table 9, gourmand note): 62.86 μg/l air | Type [2, 8]: Middle

CC1=C(O)C(=O)CC1 [2-HYDROXY-3-METHYL-2-CYCLOPENTEN-1-ONE]
Odor Threshold [1, 3]: 3.82E−04 μg/l air | Odor Value [1, 3]: 1.04E+06 | Volatility [2, 3]: 396.50 μg/l air | Type [2, 7]: Top

CC/C=C\CCCCC=O [(Z)-6-NONENAL]
Odor Threshold (μg/l air) [1, 4]: 2.91E−05 μg/l air | Type [2, 9]: Top | Volatility (μg/l air) [2, 4]: 2431.73 μg/l air

CCC(=O)OCc1ccccc1 [BENZYL PROPANOATE]
Odor Threshold [1, 5]: 2.81E−02 μg/l air | Odor Value [1, 5]: 4.04E+03 | Odor Threshold (μg/l air) [1, 4]: 2.81E−02 μg/l air | Volatility [2, 5]: 113.60 μg/l air | Type [2, 6]: TOP (perfuming compounds having a volatility ranging from 70,000 to 100 μg/l in air are referred to as “top notes”) | Type [2, 9]: Top | Volatility (μg/l air) [2, 4]: 113.60 μg/l air

O=COCCc1ccccc1 [2-PHENYLETHYL FORMATE]
Odor Threshold (μg/l air) ([1]; Table 7, citrus note): 8.34E−04 μg/l air | Odor Value [1, 10]: 6.81E+05 | Odor Threshold (μg/l air) [1, 4]: 8.34E−04 μg/l air | Volatility [2, 5]: 567.67 μg/l air | Type [2, 6]: TOP (perfuming compounds having a volatility ranging from 70,000 to 100 μg/l in air are referred to as “top notes”) | Volatility (μg/l air) ([2]; Table 7, citrus note): 567.67 μg/l air | Type [2, 11]: Top | Type [2, 9]: Top | Volatility (μg/l air) [2, 4]: 567.67 μg/l air

CCC=CCC=C/C=C/C(=O)OCC [ETHYL (2E)-2,4,7-DECATRIENOATE]
Odor Threshold [1, 5]: 1.49E−02 μg/l air | Odor Value [1, 5]: 1.70E+03 | Odor Threshold (μg/l air) [1, 4]: 1.49E−02 μg/l air | Volatility [2, 5]: 25.34 μg/l air | Type [2, 6]: Bottom | Type [2, 9]: Bottom | Volatility (μg/l air) [2, 4]: 25.34 μg/l air

cis-4-(2-methyl-2-propanyl)cyclohexyl acetate (A) + trans-4-(2-methyl-2-propanyl)cyclohexyl acetate (B)
Odor Threshold (μg/l air) ([1]; Table 7, citrus note): 5.43E−02 μg/l air | Odor Value [1, 10]: 5.37E+03 | Volatility (μg/l air) ([2]; Table 7, citrus note): 291.85 μg/l air | Type [2, 11]: Top

CC/C=C\CCOC(=O)C(C)C [(Z)-3-HEXENYL ISOBUTYRATE]
Odor Threshold (μg/l air) [1, 4]: 4.54E−02 μg/l air | Volatility [2, 5]: 1073.97 μg/l air | Type [2, 6]: TOP (perfuming compounds having a volatility ranging from 70,000 to 100 μg/l in air are referred to as “top notes”) | Type [2, 9]: Top | Volatility (μg/l air) [2, 4]: 1073.97 μg/l air

C[C@H]1[C@@H]2C[C@H](C[C@@]13C=CC(=O)CC3)C2(C)C
Odor Threshold [1, 5]: 6.32E−04 μg/l air | Odor Value [1, 5]: 6.54E+03 | Odor Threshold ([1]; Table 10, woody note): 6.32E−04 μg/l air | Volatility [2, 5]: 4.14 μg/l air | Type [2, 6]: Bottom | Type [2, 12]: Bottom | Volatility ([2]; Table 10, woody note): 4.14 μg/l air

CCCCCC=O [hexanal]
Odor Threshold (μg/l air) ([1]; Table 7, citrus note): 1.76E−03 μg/l air | Odor Value [1, 10]: 3.88E+07 | Odor Threshold (μg/l air) [1, 4]: 1.76E−03 μg/l air | Volatility (μg/l air) ([2]; Table 7, citrus note): 68294.85 μg/l air | Type [2, 11]: Top | Type [2, 9]: Top | Volatility (μg/l air) [2, 4]: 68294.85 μg/l air

CC/C=C\CC/C=C/C=O [(2E,6Z)-2,6-NONADIENAL]
Odor Threshold (μg/l air) [1, 4]: 1.46E−04 μg/l air | Type [2, 9]: Top | Volatility (μg/l air) [2, 4]: 632.43 μg/l air
